The values that follow are results of earlier work, collected in patent publication US20120237590A1 (priority 2011, published 2012).

For series [1] the following is noted: June 2005 to 2008; 27,996 exenatide and 16,276 sidagliptin users.
The next series concerns Amyloid β. As to conditions: mice, 20 mg/kg gavage, 12 weeks.

Consider `N[C@@H](CC(=O)N1CCn2c(nnc2C(F)(F)F)C1)Cc1cc(F)c(F)cc1F` [Sitagliptin], for which the “users who suffered acute pancreatitis” value in series [1] is on record as 0.12%. Further, in the series with Amyloid β, the “decrease of amyloid β levels and amyloid plaques” value is “about 50%”; the “levels of incretin GLP-1 in the brain” value is on record as “increased”.
